Legend:
Glucocorticoid receptor [1] = target: T1, Glucocorticoid receptor (Homo sapiens, UniProt P04150); test: Modulation of glucocorticoid receptor (unknown origin) transfected in human HeLa cells assessed as transrepression by measuring inhibition of PMA-induced AP-1 signalling incubated for 18 hrs by dual-luciferase reporter based assay; format: cell-based
T1 sequence (P04150 whole entry): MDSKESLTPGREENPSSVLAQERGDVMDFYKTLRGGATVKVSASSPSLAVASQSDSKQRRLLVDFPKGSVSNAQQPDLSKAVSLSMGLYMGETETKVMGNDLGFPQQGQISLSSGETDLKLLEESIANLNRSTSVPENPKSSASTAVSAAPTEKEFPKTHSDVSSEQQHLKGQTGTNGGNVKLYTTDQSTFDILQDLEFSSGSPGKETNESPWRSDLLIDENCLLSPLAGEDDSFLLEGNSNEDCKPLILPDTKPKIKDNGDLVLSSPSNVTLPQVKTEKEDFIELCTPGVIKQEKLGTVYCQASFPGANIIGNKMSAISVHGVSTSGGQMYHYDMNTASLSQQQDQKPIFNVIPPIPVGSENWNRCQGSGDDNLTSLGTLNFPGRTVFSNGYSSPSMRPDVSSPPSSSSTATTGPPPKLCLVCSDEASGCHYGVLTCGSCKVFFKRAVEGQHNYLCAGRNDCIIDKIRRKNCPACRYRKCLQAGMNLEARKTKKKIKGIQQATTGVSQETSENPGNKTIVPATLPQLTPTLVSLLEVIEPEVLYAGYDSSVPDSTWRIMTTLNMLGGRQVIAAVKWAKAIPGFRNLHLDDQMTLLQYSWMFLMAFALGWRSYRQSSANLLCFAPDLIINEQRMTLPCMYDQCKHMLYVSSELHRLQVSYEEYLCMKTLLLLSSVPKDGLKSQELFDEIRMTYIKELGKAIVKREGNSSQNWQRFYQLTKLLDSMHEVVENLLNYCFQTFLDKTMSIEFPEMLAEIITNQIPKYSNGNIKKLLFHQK

Glucocorticoid receptor [2] = target: T1, Glucocorticoid receptor; test: Binding affinity to glucocorticoid receptor (unknown origin) by Lanthascreen TR-FRET competition binding assay
Glucocorticoid receptor [3] = target: T1, Glucocorticoid receptor; test: Modulation of glucocorticoid receptor (unknown origin) transfected in human HeLa cells assessed as transrepression by measuring inhibition of TNF-alpha induced NF-kappaB signalling incubated for 18 hrs by dual-luciferase reporter based assay; format: cell-based

| Structure (SMILES) | IC50 (Glucocorticoid receptor [1]) [nM] | IC50 (Glucocorticoid receptor [2]) [nM] | IC50 (Glucocorticoid receptor [3]) [nM] |
| --- | --- | --- | --- |
| COc1cc(C)c(Cl)cc1S(=O)(=O)Nc1ccc2c(c1)CCCN2C(=O)c1ccc(Cl)cc1 | 1810 | 2070 | 100 |
| C#CC1=C(SCC(=O)c2ccccc2)NC(C)=C(C(C)=O)C1c1cccs1 (stereo unspecified) | – | 1860 | – |
| COc1cccc(Cl)c1S(=O)(=O)Nc1ccc2c(c1)CCCN2C(=O)c1ccco1 | > 10000 | – | > 10000 |
| COc1cc(C)c(Cl)cc1S(=O)(=O)Nc1ccc2c(c1)CCCN2C(=O)c1ccc(C(F)(F)F)cc1 | 3330 | 2220 | 300 |
| COc1cc(C)c(C)cc1S(=O)(=O)Nc1ccc2c(c1)CCCN2C(=O)C1CC1 | 360 | 7500 | 100 |
| CCS(=O)(=O)N(c1ccc2c(c1)CCCN2C(=O)c1ccco1)S(=O)(=O)CC | > 50000 | – | > 50000 |
| COc1cc(C)c(Cl)cc1S(=O)(=O)Nc1ccc2c(c1)CCCN2C(=O)c1cccs1 | 1360 | 1140 | 170 |
| O=C(c1ccco1)N1CCCc2cc(NS(=O)(=O)c3ccc(Cl)c(C(F)(F)F)c3)ccc21 | 4120 | 19700 | 2450 |
| COc1ccccc1S(=O)(=O)Nc1ccc2c(c1)CCCN2C(=O)c1ccco1 | 4910 | > 10000 | 900 |
| COc1cc(C)c(Cl)cc1S(=O)(=O)Nc1ccc2c(c1)CCCN2C(=O)c1ccncc1 | 550 | > 50000 | 20 |
| O=C(c1ccco1)N1CCCc2cc(NS(=O)(=O)c3ccc4c(c3)CCO4)ccc21 | 5040 | 1970 | 1320 |
| COc1cc(C)c(Cl)cc1S(=O)(=O)Nc1ccc2c(c1)CCCN2C(=O)c1ccc(C)cc1F | > 10000 | – | > 10000 |
| COc1ccc(C)c(C)c1S(=O)(=O)Nc1ccc2c(c1)CCCN2C(=O)c1ccco1 | 990 | 1350 | 100 |
| O=C(c1ccco1)N1CCCc2cc(NS(=O)(=O)c3ccc(C(F)(F)F)cc3)ccc21 | 3220 | > 50000 | 2620 |
| N#Cc1ccc(S(=O)(=O)Nc2ccc3c(c2)CCCN3C(=O)c2ccco2)cc1 | > 10000 | – | > 10000 |
| COc1cc(C)c(C)cc1S(=O)(=O)Nc1ccc2c(c1)CCCN2C(=O)C1CCCCC1 | > 10000 | > 50000 | 4610 |
| O=C(c1ccco1)N1CCCc2cc(NS(=O)(=O)c3ccc(F)cc3)ccc21 | > 10000 | – | > 10000 |
| COc1cc(C)c(Cl)cc1S(=O)(=O)Nc1ccc2c(c1)CCCN2C(=O)C1CCCCC1 | > 10000 | > 50000 | 580 |

| Structure (SMILES) | IC50 (Glucocorticoid receptor [1]) [nM] | IC50 (Glucocorticoid receptor [2]) [nM] | IC50 (Glucocorticoid receptor [3]) [nM] |
| --- | --- | --- | --- |
| COc1cc(C)c(Cl)cc1S(=O)(=O)Nc1ccc2c(c1)N(C(=O)c1ccco1)CCC2 | 680 | > 50000 | 60 |
| O=C(c1ccco1)N1CCCc2cc(NS(=O)(=O)c3ccc4ccccc4c3)ccc21 | 2080 | 1120 | 190 |
| NC(=O)c1ccc(S(=O)(=O)Nc2ccc3c(c2)CCCN3C(=O)c2ccco2)cc1 | > 10000 | – | > 10000 |
| CN(C)c1cccc2c(S(=O)(=O)Nc3ccc4c(c3)CCCN4C(=O)c3ccco3)cccc12 | 1670 | > 50000 | 210 |
| O=C(c1ccco1)N1CCCc2cc(NS(=O)(=O)c3ccc4c(c3)CCCC4)ccc21 | 4070 | 1220 | 320 |
| COc1cc(C)c(Cl)cc1S(=O)(=O)Nc1ccc2c(c1)CCCN2C(=O)c1ccc2ccccc2c1 | 1950 | 3280 | 330 |
| O=C(c1ccco1)N1CCCc2cc(NS(=O)(=O)c3ccc(Cl)c([N+](=O)[O-])c3)ccc21 | 1000 | 590 | 260 |
| CCCCc1ccc(S(=O)(=O)Nc2ccc3c(c2)CCCN3C(=O)c2ccco2)cc1 | 3690 | 7160 | 1150 |
| COc1ccc(S(=O)(=O)Nc2ccc3c(c2)CCCN3C(=O)c2ccco2)cc1 | 5620 | > 50000 | 1830 |
| COc1cc(C)c(Cl)cc1S(=O)(=O)Nc1ccc2c(c1)CCCN2C(=O)c1ccco1 | > 10000 | 5020 | 50 |
| COc1cc(C)c(Cl)cc1S(=O)(=O)Nc1ccc2c(c1)CCCN2C(=O)c1ncccn1 | 1170 | > 50000 | 130 |
| COc1ccc(C(=O)N2CCCc3cc(NS(=O)(=O)c4cc(Cl)c(C)cc4OC)ccc32)cc1 | 1420 | > 50000 | 67 |
| CC(C)(C)c1ccc(S(=O)(=O)Nc2ccc3c(c2)CCCN3C(=O)c2ccco2)cc1 | 1150 | 470 | 180 |
| O=C(c1ccco1)N1CCCc2cc(NS(=O)(=O)c3ccccc3)ccc21 | 3830 | 1920 | 3990 |
| CCCCS(=O)(=O)N(c1ccc2c(c1)CCCN2C(=O)c1ccco1)S(=O)(=O)CCCC | 2840 | > 50000 | 1790 |
| O=C(c1ccco1)N1CCCc2cc(NS(=O)(=O)c3cccs3)ccc21 | 9260 | > 50000 | > 10000 |
| COc1cc(C)c(Cl)cc1S(=O)(=O)Nc1ccc2c(c1)CCCN2C(=O)c1ccc(C)cc1 | 1110 | > 50000 | 80 |
| COc1cc(C)c(C)cc1S(=O)(=O)Nc1ccc2c(c1)CCCN2C(=O)c1ccccc1 | 1140 | > 50000 | 890 |

Other lines, results leading:

| IC50 (Glucocorticoid receptor [1]) [nM] | IC50 (Glucocorticoid receptor [2]) [nM] | IC50 (Glucocorticoid receptor [3]) [nM] | Structure (SMILES) |
| --- | --- | --- | --- |
| 3960 | > 50000 | 450 | O=C(c1ccco1)N1CCCc2cc(N(S(=O)(=O)c3ccc(Cl)cc3)S(=O)(=O)c3ccc(Cl)cc3)ccc21 |
| > 25000 | – | > 10000 | O=C(c1ccco1)N1CCCc2cc(N(S(=O)(=O)c3ccc(Br)cc3)S(=O)(=O)c3ccc(Br)cc3)ccc21 |
| 4800 | > 50000 | 2660 | O=C(c1ccco1)N1CCCc2cc(N(S(=O)(=O)c3ccc([N+](=O)[O-])cc3)S(=O)(=O)c3ccc([N+](=O)[O-])cc3)ccc21 |
| 7990 | > 50000 | 700 | O=C(c1ccco1)N1CCCc2cc(N(S(=O)(=O)c3ccc4c(c3)CCCC4)S(=O)(=O)c3ccc4c(c3)CCCC4)ccc21 |
| 3150 | > 30000 | > 10000 | N#Cc1ccc(S(=O)(=O)N(c2ccc3c(c2)CCCN3C(=O)c2ccco2)S(=O)(=O)c2ccc(C#N)cc2)cc1 |
| > 10000 | – | > 50000 | COC(=O)c1ccc(S(=O)(=O)N(c2ccc3c(c2)CCCN3C(=O)c2ccco2)S(=O)(=O)c2ccc(C(=O)OC)cc2)cc1 |
| 4270 | > 50000 | 3620 | O=C(c1ccco1)N1CCCc2cc(NS(=O)(=O)c3ccc([N+](=O)[O-])cc3)ccc21 |
| > 10000 | – | > 10000 | CC(C)(C)c1ccc(S(=O)(=O)N(c2ccc3c(c2)CCCN3C(=O)c2ccco2)S(=O)(=O)c2ccc(C(C)(C)C)cc2)cc1 |
| 2860 | > 50000 | 1050 | O=C(c1ccco1)N1CCCc2cc(N(S(=O)(=O)c3cccs3)S(=O)(=O)c3cccs3)ccc21 |
| 1050 | > 50000 | 280 | COc1ccc(S(=O)(=O)N(c2ccc3c(c2)CCCN3C(=O)c2ccco2)S(=O)(=O)c2ccc(OC)cc2)cc1 |
| 330 | > 50000 | 90 | Cc1ccc(S(=O)(=O)N(c2ccc3c(c2)CCCN3C(=O)c2ccco2)S(=O)(=O)c2ccc(C)cc2)cc1 |
| > 50000 | – | > 10000 | O=C(c1ccco1)N1CCCc2cc(N(S(=O)(=O)c3cccnc3)S(=O)(=O)c3cccnc3)ccc21 |
| > 50000 | – | > 50000 | O=C(c1ccco1)N1CCCc2cc(N(S(=O)(=O)c3ccc(C(F)(F)F)cc3)S(=O)(=O)c3ccc(C(F)(F)F)cc3)ccc21 |
| 620 | > 50000 | 390 | O=C(c1ccco1)N1CCCc2cc(N(S(=O)(=O)c3ccccc3)S(=O)(=O)c3ccccc3)ccc21 |
| > 50000 | – | > 50000 | O=C(c1ccco1)N1CCCc2cc(N(S(=O)(=O)Cc3ccccc3)S(=O)(=O)Cc3ccccc3)ccc21 |
| 7220 | 90 | 810 | O=C(c1ccco1)N1CCCc2cc(NS(=O)(=O)c3ccc(-c4ccccc4)cc3)ccc21 |
| 4150 | 2290 | 70 | O=C(c1ccco1)N1CCCc2cc(N(S(=O)(=O)c3ccc(-c4ccccc4)cc3)S(=O)(=O)c3ccc(-c4ccccc4)cc3)ccc21 |
| 2250 | > 50000 | 840 | O=C(c1ccco1)N1CCCc2cc(N(S(=O)(=O)c3ccc(F)cc3)S(=O)(=O)c3ccc(F)cc3)ccc21 |
| 3190 | > 50000 | 430 | O=C(c1ccco1)N1CCCc2cc(N(S(=O)(=O)c3cc4ccccc4s3)S(=O)(=O)c3cc4ccccc4s3)ccc21 |

From ChEMBL document CHEMBL5236596, “Discovery and Optimization of N-Acyl-6-sulfonamide-tetrahydroquinoline Derivatives as Novel Non-Steroidal Selective Glucocorticoid Receptor Modulators” (J Med Chem, 2022)
